Measured values published in patent US20240390377A1, “COMPOSITION FOR THE PREVENTION OR TREATMENT OF NEURODEGENERATIVE OR MOTOR NEURON DISEASES COMPRISING HALOFUGINONE AS AN ACTIVE INGREDIENT” (CURAMYS CO., LTD., priority 2022, published 2024).

Assays:
C2C12 cells [1] = assay: Western blot analysis of C2C12 myoblasts (TGF-β1 stimulation, halofuginone treatment); assay type: cell-based, mouse; conditions: 24 hours of 5 ng/ml TGF-β1 stimulation (FIG. 2b)
Experimental: (§1) Specifically, C2C12 cells (CRL-1772) were purchased from the American Type Culture Collection (ATCC) and maintained in DMEM medium (Welgene) containing 10% (v/v) fetal bovine serum (FBS; Gibco) and 1% penicillin-streptomycin (P/S; Gibco) at 37° C. under 5% CO2 conditions. The C2C12 cells were seeded in 6-well plates at a density of 3×10^5 cells per well and allowed to adhere for 24 hours. Subsequently, the medium was replaced with serum-free medium after 24 hours, followed by stimulation with 5 ng/ml rhTGF-β1 (recombinant human TGF-β1; R&D Systems). After stimulation, the cells were treated with various concentrations (0 [control], or 1, 2.5, 5 [low dose], 10 [high dose], 20, 50, 100 ng/ml) of halofuginone (Sigma) in serum-free medium for 24 hours.
Specifically, the lumbar spinal cord or knee joint of the mouse of Example 6 was separated and immediately frozen at −80° C. Each lumbar spinal cord or knee joint was then homogenized and chemically treated to obtain cells. The chemically treated cells, the C2C12 cells of Example 1 or the fibroblasts of Example 5 were dissolved in a RIPA buffer (Thermo, MA, USA) with a protease inhibitor and a phosphatase inhibitor (Roche, IN, USA) and incubated on ice for 30 minutes. After centrifugation of the lysate at 13,000 rpm at 4° C. for 20 min, insoluble substances were removed. Protein concentrations were measured by BCA analysis (Pierce Biotechnology). Equal volumes of cell lysate were loaded onto SDS-PAGE gels for electrophoresis, and transferred onto nitrocellulose membranes (Amersham Protran 0.2 um NC, Amersham Pharmacia Biotech, Piscataway, NJ, USA). The membranes were then blocked with 5% (w/v) skimmilk in 1×TBST for 1 h at room temperature. After blocking, anti-RB-actin antibody (1:5000; Santa Cruz, cat #sc47778), anti-Smad2 antibody (1:1000; Cell Signaling, cat #5339), anti-p-Smad2 antibody (1:1000; Cell Signaling, cat #3108), anti-TGF-β1 antibody (1:1000; Santa Cruz, cat #sc130348), anti-α-SMA antibody (1:10000; abcam cat #ab7817), anti-MyoD antibody (1:1000; cat #sc377460), anti-collagen|antibody (1:1000; abcam cat #ab21286), anti-cleaved caspase-3 antibody (1:1000; Cell Signaling, cat #9661), anti-bax antibody (1:500; Santa Cruz, cat #sc493), anti-bcl2 antibody (1:1000; Novus Biologics, cat #NB100-56098), anti-ChAT antibody (1:1000; Millipore, cat #AB144) were treated and incubated overnight at 4° C. Subsequently, membranes were washed several times with 1×TBST and incubated with horseradish peroxidase-conjugated secondary antibodies (anti-mouse, rabbit or goat, 1:5000; GE Healthcare) in blocking buffer for 1 h at room temperature (RT). The membranes were then washed, briefly incubated with the SuperSignal West Pico Plus Chemical Substructure (Pierce Biotechnology) according to the manufacturer's procedure, and quantified with an image analyzer (Amersham Pharmacia Biotech, Piscataway, NJ, USA). β-actin was used as an internal control group. The concentration measurement of protein intensity was quantified using Image J (National Institutes of Health).
(§2) Specifically, after treating C2C12 cells with TGF-β1 for 24 hours as in Example 1, real-time qRT-PCR was performed in the same manner as in Example 11 to confirm TGF-β1, 2 and 3, α-SMA and MyoD mRNA expression (FIG. 2a), and Western blot analysis was performed in the same manner as in Example 12 to confirm autocrine expression of TGF-β1 and MyoD protein and α-SMA (FIG. 2b).
Specifically, C2C12 cells were treated with halofuginone after TGF-β1 stimulation or no stimulation in the same manner as described in Example 2, and cell viability analysis was performed through CCK-8 analysis (FIGS. 3a and 3b), and Western blot analysis was performed in the same manner as described in Example 12 to confirm autocrine expression of p-Smad2, Smad2, TGF-β1, MyoD, collagen I protein and α-SMA (FIG. 3c). […]

C2C12 cells [2] = assay: Real-time qRT-PCR analysis of C2C12 myoblasts (TGF-β1 stimulation, halofuginone treatment); assay type: cell-based, mouse; conditions: 24 hours of 5 ng/ml TGF-β1 stimulation, vs control group (FIG. 2a)
Experimental: as §1
Specifically, total RNA was isolated from C2C12 cells in Example 1, fibroblasts in Example 5, and the lumbar spinal cord of mice in Example 6 using the FavorPrep™ Tri-RNA Reagent (Favorgen). The lumbar spinal cord was isolated from the mouse in Example 6 and stored frozen at −80° C. until the experiment. The concentration of total RNA was measured at 260 nm absorbance using a spectrophotometer (NanoDrop Spectrophotometer ND-2000, Thermo Scientific). cDNA was synthesized from 1 μg of total RNA using the ReverTra Ace-α™ (Toyobo) according to the manufacturers protocol. Quantitative RT-PCR was performed using the SYBR Green ExcelTaq™ 2× Fast Q-PCR Master Mix (TQ1200, Smobio) on a thermocycler (CFX Connect Real-Time PCR Detection System, BIO-RAD) with the primers listed in Table 3 below. Fluorescence data were analyzed with Bio-Rad CFX Manager 3.1 software, and control versus relative mRNA expression was calculated by the 2AT) method. Experiments were performed four times on all samples. All primers were designed using Primer3 online software, and GAPDH was used as a control group.
as §2
Specifically, as in Example 1, C2C12 cells were stimulated with TGF-β1 for 24 hours, and then halofuginone was treated for 24 hours, and real-time qRT-PCR was performed in the same manner as in Example 11 to confirm TGF-β1, α-SMA, MyoD, and collagen I (Col-I) mRNA expression (FIG. 4a). In addition, Western blot analysis was performed in the same manner as in Example 12 to confirm TGF-β1, α-SMA, MyoD, and collagen I protein expression (FIG. 4b). In addition, immunocytochemical analysis was performed in the same manner as in Example 3 to confirm α-SMA and MyoD expression (FIG. 4c).

Substance: TGF-β1: recombinant human TGF-β1 (R&D Systems) used to stimulate C2C12 myoblasts
- TGF-β1 protein expression (C2C12 cells [1]): significantly increased
- protein expression of MyoD (C2C12 cells [1]): significantly decreased
- α-SMA protein expression (C2C12 cells [1]): significantly increased
- mRNA expression of α-SMA (C2C12 cells [2]): significantly increased
- mRNA level of MyoD (C2C12 cells [2]): significantly decreased
- mRNA level of TGF-β1 (C2C12 cells [2]): significantly increased
- mRNA level of TGF-β2 (C2C12 cells [2]): significantly increased
- mRNA level of TGF-β3 (C2C12 cells [2]): significantly increased
